From patent US10125157B2, “Derivatives of oxazaphosphorines that are pre-activated, use and method of preparation” (priority 2010, dated 2018)
Where two headings read alike, the source gives them in different places.

Key:
[1] = Chemical stability of the 4-methoxy analogue; format: physicochemical; settings: releases isophosphoramide mustard rapidly
[2] = compared with the active metabolite of IFO; cited from earlier work
UW 479 (Glioma) = assay: In vitro cytotoxicity, MTS cell viability test, 72 h; format: cell-based, human; settings: for IC50: Homo sapiens; for cytotoxic activity (in words): UW 479 (Glioma) cells
Protocol: (§1) The cells were seeded in 96-well plates (TPP).
(§2) J. Pharm, 1989, 55, R1-R4.
(§3) The results are expressed as percentage of untreated cells. […] IC50 values were thus calculated for each line. Ifosfamide and squalenol were used as controls.

IGR-OV1 (Ovary) = assay: as above; format: cell-based, human; settings: for IC50: Homo sapiens; for cytotoxic activity (in words): IGR-OV1 (Ovary) cells
Protocol: as §1, §2, §3

MCF-7 = assay: as above; format: cell-based; settings: Homo sapiens
Protocol: as §1, §2, §3

A549 = assay: as above; format: cell-based; settings: Homo sapiens
Protocol: as §1, §2, §3

KB 3.1 = assay: as above; format: cell-based; settings: Homo sapiens
Protocol: as §1, §2, §3

SK-N-MC (Ewing) = assay: as above; format: cell-based; settings: for IC50: Homo sapiens; for cytotoxic activity (in words): SK-N-MC (Ewing) cells
Protocol: as §1, §2, §3

MCF-7 MDR = assay: as above; format: cell-based; settings: Homo sapiens
Protocol: as §1, §2, §3

B16F10 = assay: as above; format: cell-based; settings: Mus musculus
Protocol: as §1, §2, §3

MiaPaCa-2 = assay: as above; format: cell-based; settings: Homo sapiens
Protocol: as §1, §2, §3

[3] = Nanoparticle size in aqueous medium; format: physicochemical; settings: for average size of nanoparticles: aqueous suspension prepared by the technique of Fessi, spherical; for size of nanoparticles: self-assembly in an aqueous medium
Description: For example, the most recent and most promising application concerns the attachment of a squalene residue by this method by adding squalenol or squalene-thiol in the presence of BF3ET2O on the phosphoryl-iminium produced from 4-methoxy-MFI (Schemes 7 and 8). The compounds formed, SQ-4-O-MFI and SQ-4-S-MFI, have two interesting properties. The first is that they are pre-activated forms of MFI due to oxidation in position 4 that can release, in a slightly acidic aqueous medium, the alkylating mustard directly without metabolic activation. The second is that they are capable of self-assembly in an aqueous medium in the form of nanoparticles of a size of about 160 nm.
as §2

M109 = assay: In vitro cytotoxicity, MTS cell viability test, 72 h; format: cell-based, mouse; settings: for cytotoxic activity (in words): M109 cell line; for IC50: Mus musculus
Protocol: as §1, §2, §3

several cell lines = assay: In vitro cytotoxicity over the panel of cell lines (MTS); settings: all cell lines tested, concentrations between 0.1 and 100 μM
Description: Cytotoxicity of SQ-IFO and SQ-thio-IFO nanoparticles was studied in several cell lines:
• A549: human alveolar basal epithelial cell adenocarcinoma • MCF-7: human breast carcinoma • MCF-7 MDR: multidrug resistant human breast carcinoma • B16F10: mouse melanoma • KB 3.1: human epidermoid carcinoma • M109: mouse lung tumor cells • MiaPaCa-2: human pancreatic carcinoma • UW-479: human pediatric glioma • IGR OV1: human ovarian cancer • SK-N-MC: neuroblastoma, reclassified as Ewing (expression of EWS/Flip-1 oncogene)
The cell lines were maintained in DMEM or RPMI medium supplemented with 10% fetal calf serum and 1% antibiotics (100 U/mL penicillin and 100 μg/mL streptomycin) in an incubator at 37° C. in a humid 5% carbon dioxide atmosphere.
The cells were seeded in 96-well plates (TPP). Seeding was optimized for each line for an incubation time of 72 hours.
A549, MCF-7, B16F10, M109, MiaPaCa-2 cells were seeded at 5·10^3 cells/well. […] cells were seeded at 2·10^3 cells/well, IGR-OV1 cells at 10^4 cells/well and UW479 and SK-N-MC cells at 5·10^4 cells/well.
The compounds SQ-IFO and SQ-thio-IFO were synthesized according to the protocol described above. For each compound, an aqueous suspension of nanoparticles was prepared using the technique described by Fessi, Int. J. Pharm, 1989, 55, R1-R4.
For each compound, different concentrations between 0.1 and 100 μM were tested by serial dilution of a 2 mg/mL stock solution for SQ-IFO and a 10 mg/mL stock solution for SQ-thio-IFO in culture medium.
After 72 hours of incubation, cell viability was determined by observing the reduction of MTS reagent to formazan (CellTiter 96 AQueous One Solution kit, Promega). 20 μL of a 5 mg/mL solution of MTS in PBS were added per well. The incubation time of the MTS was optimized for each cell line; the absorbance at 490 nm was then read using a plate reader (EL808, Biotek).
The results are expressed as percentage of untreated cells. The data were treated with Prism 4 software (Graph Pad Software, San Diego). IC50 values were thus calculated for each line. Ifosfamide and squalenol were used as controls.

[4] = test system: RD human pediatric rhabdomyosarcoma model; assay: In vivo efficacy, human rhabdomyosarcoma xenografted in nude mice; settings: RD xenograft, treated when tumor volume >80 mm^3, preliminary results
Protocol: In vivo cytotoxic efficacy was evaluated first on a model of human rhabdomyosarcoma xenografted in nude mice. The model used is the RD human pediatric rhabdomyosarcoma model. The cells were first amplified in culture and counted. 10·10^6 cells were injected subcutaneously in both flanks of each mouse. After graft uptake, when tumor volume reached >80 mm^3, the mice were treated with IFO-SQ or placebo.

Molecule	IC50 (UW 479 (Glioma); 72 h) [µM]	cytotoxic activity (in words) (UW 479 (Glioma))	IC50 (IGR-OV1 (Ovary); IGROV-1, 72 h) [µM]	cytotoxic activity (in words) (IGR-OV1 (Ovary))	IC50 (MCF-7; MCF7, 72 h) [µM]	IC50 (A549; A549, 72 h) [µM]	IC50 (KB 3.1; KB 3-1, 72 h) [µM]	IC50 (SK-N-MC (Ewing); SK-N-MC, 72 h) [µM]	cytotoxic activity (in words) (SK-N-MC (Ewing))	IC50 (MCF-7 MDR; MCF7, 72 h) [µM]	IC50 (B16F10; B16-F10, 72 h) [µM]	IC50 (MiaPaCa-2; MIA PaCa-2, 72 h) [µM]	average size of nanoparticles [3] [nm]	size of nanoparticles [3]	cytotoxic activity (in words) (M109)	IC50 (M109; M109, 72 h) [µM]	in vitro cytotoxicity (in words) (several cell lines)	also measured
COC1CCOP(=O)(NCCCl)N1CCCl (stereo not shown) [4-MeO-IFO, 4-methoxy-ifosfamide]																		chemical stability [1]: quite unstable; cytotoxic potency [2]: equivalent to that of the active metabolite of IFO
CC(C)=CCC/C(C)=C/CC/C(C)=C/CC/C=C(\C)CC/C=C(\C)CCC(=O)NCCSC1CCOP(=O)(NCCCl)N1CCCl (stereo not shown) [Ifosfamide-thio-SQ, (2-chloro-ethyl)-[3-(2-chloro-ethyl)-2-oxo-4-mercaptoethylamidosqualen-[1,3,2]oxazaphosphinan-2-yl]-amine]	65	high cytotoxic activity	81	high cytotoxic activity	10.9	5.3	2.96	19	high cytotoxic activity	80	16.9	4.4	182	about 160 nm	high cytotoxic activity	9.2	high in vitro cytotoxicity	
tris-nor-squalenol [reference compound]																	did not exhibit significant cytotoxicity	
CC(C)=CCC/C(C)=C/CC/C(C)=C/CC/C=C(\C)CC/C=C(\C)CCCOC1CCOP(=O)(NCCCl)N1CCCl (stereo not shown) [Ifosfamide SQ]	> 100	not observed	> 100	not observed	43.6	32.5	50	> 100	not observed	78.8	73	32.5	182	about 160 nm	not observed	> 100	high in vitro cytotoxicity	tumor volume compared to mice treated with placebo [4]: significant decrease in tumor volume
O=P1(NCCCl)OCCCN1CCCl (stereo not shown) [Ifosfamide, reference compound]																	did not exhibit significant cytotoxicity	IC50 (UW 479 (Glioma); UW 479 (Glioma), 72 h incubation, nanoparticle suspension, MTS, read-out: IC50): > 100 µM; IC50 (IGR-OV1 (Ovary); IGROV-1, IGR-OV1 (Ovary), 72 h incubation, nanoparticle suspension, MTS, read-out: IC50): > 100 µM; IC50 (MCF-7; MCF7, MCF-7, 72 h incubation, nanoparticle suspension, MTS, read-out: IC50): > 100 µM; IC50 (A549; A549, 72 h incubation, nanoparticle suspension, MTS, read-out: IC50): > 100 µM; IC50 (KB 3.1; KB 3-1, KB 3.1, 72 h incubation, nanoparticle suspension, MTS, read-out: IC50): > 100 µM; IC50 (SK-N-MC (Ewing); SK-N-MC (Ewing), 72 h incubation, nanoparticle suspension, MTS, read-out: IC50): > 100 µM; IC50 (MCF-7 MDR; MCF7, MCF-7 MDR, 72 h incubation, nanoparticle suspension, MTS, read-out: IC50): > 100 µM; IC50 (B16F10; B16-F10, B16F10, 72 h incubation, nanoparticle suspension, MTS, read-out: IC50): > 100 µM; IC50 (MiaPaCa-2; MIA PaCa-2, MiaPaCa-2, 72 h incubation, nanoparticle suspension, MTS, read-out: IC50): > 100 µM; IC50 (M109; M109, 72 h incubation, nanoparticle suspension, MTS, read-out: IC50): > 100 µM
